What was measured:
MRPA0108 biofilms = test: Confocal laser scanning microscopy of biofilms (LIVE/DEAD staining); format: cell-based, Pseudomonas aeruginosa; details: erythromycin positive control, concentration not given; 24 h; control 8.7%
Protocol: Biofilms of MRPA0108 were visualized by confocal microscopy. Mid-log growth-phase bacteria were diluted to 1 × 10^7 CFU/ml. […] LB liquid medium and erythromycin were used as negative and positive controls, respectively. After incubation, the supernatant was removed, and the slides were washed and stained in a dark environment for 30 min using a LIVE/DEAD BacLight^TM Bacterial Viability Kit (Invitrogen, Life Technologies, Shanghai, China). The slides were washed three times and imaged with a confocal laser scanning microscope (LSM 710, Carl Zeiss, Germany) with excitation/emission wavelengths of 480/500 and 490/635 nm for SYTO9 and propidium iodide (PI), respectively. SYTO9 was used to indicate live bacteria, and PI was used to mark dead bacteria.

[1] = system: MRPA0108 swarming motility; test: Swarming motility assay; format: cell-based, Pseudomonas aeruginosa; details: erythromycin positive control, concentration not given; 24 h, 37°C; vs control
Protocol: The swarming motility of MRPA0108 was assessed as described by [O’May and Tufenkji (2011)], with slight modifications. Briefly, swarming agar medium (1% tryptone, 0.5% NaCl, and 0.5% agar) was prepared in the presence or absence of peptide at a final concentration of 1/4 × MIC. MRPA0108 cells from an overnight culture grown on LB agar plates were placed directly on the agar surface (center) with a sterile toothpick so that the motility within the semisolid agar could be evaluated. After 24 h of incubation at 37°C, the diameters of swarming motility were observed and measured. LB liquid medium and erythromycin were used as negative control and positive controls, respectively. All experiments were repeated three times.

CC[C@H]1OC(=O)[C@H](C)[C@@H](O[C@H]2C[C@@](C)(OC)[C@@H](O)[C@H](C)O2)[C@H](C)[C@@H](O[C@@H]2O[C@H](C)C[C@H](N(C)C)[C@H]2O)[C@](C)(O)C[C@@H](C)C(=O)[C@H](C)[C@@H](O)[C@]1(C)O [erythromycin, reference compound]
percentage of dead/live cells in biofilm (MRPA0108 biofilms): 68.9%
reduction in swarming motility [1]: 85%

— paper PMC7906020, “Trp-Containing Antibacterial Peptides Impair Quorum Sensing and Biofilm Development in Multidrug-Resistant Pseudomonas aeruginosa and Exhibit Synergistic Effects With Antibiotics” (Frontiers in Microbiology, 2021)
